Like-named read-outs stand apart in the source and are kept apart here.
Assays:
[1] = Pharmacokinetic analysis of CBN and metabolites in rat plasma and brain (LC-MS/MS); format: in vivo; conditions: for Kp: brain and plasma, 10 mg/kg, read-out: Brain/plasma ratio
Procedure: Rats received 10 mg/kg CBN IP at approximately ZT13. Rats were then anesthetized with isoflurane at selected ZT points (13, 13.5, 14, 15, 17, 19, and 21) and blood was collected by terminal cardiac puncture. Brains were harvested, snap frozen on dry ice and plasma was isolated via centrifugation at 9000 × g for 10 min at 4 °C. All tissues were stored at −80 °C until analysis. CBN and metabolite concentrations in plasma and brain samples were assayed by liquid chromatography-tandem mass spectrometry (LC–MS/MS) using a using a Shimadzu Nexera LC-30AD UHPLC system coupled to a Shimadzu SPD-20AV photodiode array detector and a Shimadzu LC–MS-8040 triple-quadrupole mass spectrometer, equipped with an electrospray ionization (ESI) source (Shimadzu Corp.; Kyoto, Japan) as described previously.
LC-MS/MS. Plasma samples (50 µL) were spiked with internal standard (12.5 µg/mL d3-THC, 5 µL) and protein precipitation was achieved by vortex-mixing with a 3x volume of ice-cold acetonitrile. The organic layer was isolated by centrifugation (6000 g for 10 min, 4 °C) and evaporated to dryness using N2 gas. Samples were reconstituted in acetonitrile (90 µL) and 0.1% ammonium formate in water (300 µL) for supported-liquid extraction (SLE) using dichloromethane and methyl tert-butyl ether Biotage Isolute SLE+ columns (Uppsala, Sweden) as previously described. Brain samples were prepared as described for plasma samples with minor modifications. Briefly, each half brain was homogenised in methanol: water (2:1, 10x, w/v) and spiked with d3-THC as an internal standard. Homogenates were centrifuged (20,000 g for 30 min, 4 °C). Supernatants were then extracted and prepared as described above.
Quantification of CBN, 11-OH-CBN and 11-COOH-CBN in plasma and brain samples was performed by comparing experimental samples to eight-point standard curves prepared with known amounts of cannabinoid. Plasma and brain concentrations at each time point were averaged and pharmacokinetic parameters were calculated by noncompartmental analysis. Elimination rate constants were determined by linear regression of the terminal component of the concentration-time curve using GraphPad Prism 8.2 (La Jolla, USA). The log-linear trapezoidal method was used to calculate the area under concentration-time curve using equations described previously.

[2] = target: human CB1 receptors (Homo sapiens, UniProt P21554); test: cell-based; format: cell-based; parameters: expressed in transfected cells; host or cells: mouse AtT20 FlpIn cells
[3] = target: T1, human CB2 receptors (Homo sapiens, UniProt P34972); test: Membrane potential (GIRK) assay in AtT20 cells, human CB2; format: cell-based; conditions: at 30 µM; normalized to 1 µM CP 55,940
T1 construct: expressed in transfected cells; host or cells: mouse AtT20 FlpIn cells

[4] = system: male Long-Evans rats; test: Acute polysomnography (wireless EEG/EMG telemetry) in rats; conditions: for NREM delta power / REM theta power: EEG power spectra; for NREM delta power: overall effect; for NREM delta power / REM theta power / body temperature / locomotor activity counts: acute IP; for NREM delta power / REM theta power / total sleep time / % NREM sleep / % REM sleep / % active wake / % quiet wake / NREM sleep onset latency / REM bout duration / REM bout number / REM sleep onset latency / cumulative total sleep time / mean duration of NREM bouts per hour / number of NREM bouts per hour / total wake time / body temperature / locomotor activity counts: zolpidem 10 mg/kg; for total sleep time: acute IP at ZT13 (dark phase) vs vehicle, n = 8; for body temperature: subcutaneous; for body temperature / locomotor activity counts: telemetry
[5] = system: rat CB1 receptors; parameters: method as in PMID 9379442; conditions: adenylyl cyclase inhibition; higher potency than CBN; efficacy not reported; cited from earlier work
[6] = system: mice; conditions: cited from earlier work; for NREM: mice
[7] = system: rats; parameters: method as in PMID 28934522, PMID 37507813; conditions: cited from earlier work
[8] = system: rabbits; parameters: method as in PMID 4355439; conditions: cited from earlier work
[9] = parameters: method as in PMID 4337346; conditions: early human study; cited from earlier work
[10] = ip, rat plasma after CBN 10 mg/kg, post-dose, read-out: plasma Tmax (converted)
[11] = rat brain after CBN 10 mg/kg IP, analyte as labelled
[12] = rat brain after CBN 10 mg/kg IP, analyte as labelled, n = 4
[13] = rat plasma after CBN 10 mg/kg IP, analyte as labelled
[14] = rat plasma after CBN 10 mg/kg IP, analyte as labelled, n = 4
[15] = rat, ip, rat, after CBN 10 mg/kg IP, analyte as labelled
[16] = CBN 10, 30, 100 mg/kg, 11-OH-CBN 1, 3, 10 mg/kg
[17] = acute IP at ZT13 vs vehicle, CBN 10, 30, 100 mg/kg, 11-OH-CBN 1, 3, 10 mg/kg

Chain of human CB1 receptors (P21554 whole entry): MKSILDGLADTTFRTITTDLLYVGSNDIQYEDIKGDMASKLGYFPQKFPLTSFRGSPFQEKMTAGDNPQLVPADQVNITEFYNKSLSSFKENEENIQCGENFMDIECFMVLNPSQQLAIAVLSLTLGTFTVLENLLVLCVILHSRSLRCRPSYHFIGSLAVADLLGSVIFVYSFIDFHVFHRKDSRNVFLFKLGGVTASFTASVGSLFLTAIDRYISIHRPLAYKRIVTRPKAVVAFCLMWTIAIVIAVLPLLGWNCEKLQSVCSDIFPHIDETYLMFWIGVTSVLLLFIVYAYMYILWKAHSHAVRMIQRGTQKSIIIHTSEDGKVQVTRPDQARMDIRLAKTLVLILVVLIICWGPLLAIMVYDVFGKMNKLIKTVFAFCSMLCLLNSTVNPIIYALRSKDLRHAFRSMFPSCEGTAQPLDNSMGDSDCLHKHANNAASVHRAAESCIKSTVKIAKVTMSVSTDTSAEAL
T1 sequence (P34972 whole entry): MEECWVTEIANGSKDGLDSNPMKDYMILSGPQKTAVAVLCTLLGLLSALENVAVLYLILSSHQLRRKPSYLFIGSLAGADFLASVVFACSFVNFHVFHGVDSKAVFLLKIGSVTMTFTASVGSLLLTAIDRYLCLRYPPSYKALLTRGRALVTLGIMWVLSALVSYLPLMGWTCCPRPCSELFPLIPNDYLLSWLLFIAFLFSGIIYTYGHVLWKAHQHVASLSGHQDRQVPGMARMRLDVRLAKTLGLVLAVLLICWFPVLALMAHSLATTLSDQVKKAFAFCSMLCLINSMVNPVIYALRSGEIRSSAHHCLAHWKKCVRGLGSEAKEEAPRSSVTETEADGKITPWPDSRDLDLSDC

CCCCCc1cc(O)c2c(c1)OC(C)(C)c1ccc(C(=O)O)cc1-2 [11-COOH-CBN, 11-carboxy-cannabinol]
half-life ([1]; ip, rat brain after CBN 10 mg/kg, read-out: brain T1/2 (converted)): 209 min
Tmax [1, 10]: 1 h
half-life ([1]; ip, rat plasma after CBN 10 mg/kg, read-out: t1/2 plasma (converted)): 271 min
Brain AUC∞ [1, 11]: 137 pg hour/mg brain
Brain t½ [1, 11]: 3.48 h
Brain Cmax [1, 12]: 28 ± 5 pg/mg brain
Tmax ([1]; rat brain after CBN 10 mg/kg IP, analyte as labelled, read-out: Brain tmax): 2 h
Plasma AUC∞ [1, 13]: 1181 ng·h/mL
Plasma t½ [1, 13]: 4.52 h
Cmax [1, 14]: 169 ± 38 ng/mL
Kp [1, 15]: 0.12
response at CB1 ([2]; 30 µM (highest concentration tested), normalized to 1 µM CP 55,940): 43 ± 7%
activity at CB1 receptors (in words) ([2]; membrane potential assay): minimal activity
activity at CB2 [3]: 41 ± 2%

CCCCCc1cc(O)c2c(c1)OC(C)(C)c1ccc(CO)cc1-2 [11-OH-CBN, 11-hydroxy-cannabinol]
Tmax ([1]; ip, rat brain after CBN 10 mg/kg, read-out: brain Tmax): 2 h
Tmax [1, 10]: 1 h
half-life ([1]; ip, rat, after CBN 10 mg/kg, similar in plasma and brain, read-out: half-life in plasma and brain (converted)): ~120 min
Brain AUC∞ [1, 11]: 1539 pg hour/mg brain
Brain Cmax [1, 12]: 419 ± 37 pg/mg brain
half-life ([1]; rat brain after CBN 10 mg/kg IP, analyte as labelled, read-out: Brain t½ (converted)): 125 min
Brain Cmax ([1]; rat brain following systemic administration of CBN): 1.3 µM
Plasma AUC∞ [1, 13]: 493 ng·h/mL
Cmax [1, 14]: 170 ± 18 ng/mL
half-life ([1]; rat plasma after CBN 10 mg/kg IP, analyte as labelled, read-out: Plasma t½ (converted)): 131 min
Brain/plasma ratio ([1]; rat, after CBN 10 mg/kg IP, analyte as labelled): ~3
Kp [1, 15]: 3.12
NREM delta power [4, 16]: significantly increased
REM theta power [4, 16]: significantly increased
delayed onset of action on % NREM sleep, time post-dosing ([4]; acute IP at ZT13): 3 to 4 h
total sleep time [4, 16]: did not significantly increase
cumulative NREM time [4, 17]: biphasic effect
cumulative REM time [4, 17]: suppressed I cumulative REM at the highest dose
% NREM sleep [4, 17]: increased
% REM sleep [4, 17]: biphasically affected
% active wake [4, 17]: decreased
% quiet wake [4, 17]: decreased
NREM sleep onset latency [4, 17]: increased
REM bout duration [4, 17]: did not affect
REM bout number [4, 17]: affected
REM sleep onset latency [4, 17]: increased
cumulative total sleep time [4, 17]: biphasically influenced
mean duration of NREM bouts per hour [4, 17]: significantly decreased
number of NREM bouts per hour [4, 17]: increased
total wake time [4, 17]: did not significantly reduce
body temperature [4, 16]: decreased
locomotor activity counts [4, 16]: biphasic effect
EC50 ([2]; CB1, membrane potential assay, AtT20 cells, read-out: pEC50 (converted)): 1000 nM
Emax ([2]; CB1, normalized to 1 µM CP 55,940, AtT20 cells, read-out: maximal response (Emax)): 75 ± 3%
activity at CB1 receptors (in words) ([2]; membrane potential assay): modestly potent partial agonist
activity at CB2 [3]: 50 ± 6%
potency at rat CB1 receptors [5]: low nM range

O=S(=O)(F)CCCCCc1ccc(O)cc1 [AM3506]
REM [6]: suppressed
NREM [6]: increased

CCCCCCC(C)(C)c1ccc([C@H]2CCC[C@@H](O)C2)c(O)c1 [CP 47,497]
NREM [6]: increased

O=C(Oc1ccc([N+](=O)[O-])cc1)N1CCC(C(O)(c2ccc3c(c2)OCO3)c2ccc3c(c2)OCO3)CC1 [JZL184]
REM [6]: suppressed
NREM [6]: increased

Cc1ccc(-c2nc3ccc(C)cn3c2CC(=O)N(C)C)cc1 [zolpidem, reference compound]
NREM delta power at specific time points ([4]; CBN 30 mg/kg and 100 mg/kg at ZT17 and 18, zolpidem 10 mg/kg at ZT13 and 14): increase
NREM delta power [4, 16]: Neither CBN nor zolpidem had robust effects
REM theta power [4, 16]: increased
total sleep time [4, 16]: increased
% NREM sleep [4, 17]: increased
% REM sleep [4, 17]: did not affect
% active wake [4, 17]: decreased
% quiet wake [4, 17]: did not affect
NREM sleep onset latency [4, 17]: decreased
REM bout duration [4, 17]: did not affect
REM bout number [4, 17]: did not affect
REM sleep onset latency [4, 17]: did not affect
cumulative total sleep time [4, 17]: increased
mean duration of NREM bouts per hour [4, 17]: increased
number of NREM bouts per hour [4, 17]: unaffected
total wake time [4, 17]: decreased
body temperature [4, 16]: did not robustly effect
locomotor activity counts [4, 16]: decreased

CCCCCc1cc(O)c2c(c1)OC(C)(C)[C@@H]1CCC(C)=C[C@@H]21 [Δ^9-THC, Δ^9-tetrahydrocannabinol]
REM [7]: suppressed
NREM and REM sleep [8]: early-phase NREM and REM suppression, followed by a later phase increase in NREM sleep
NREM and REM sleep [9]: tended to increase NREM but suppress REM sleep
